Test [1] addresses FKBP12 and FRB (Homo sapiens, UniProt P42345+P62942). Description: Rapamycin-sensitive MG-PACE circuit, luciferase activation. Format: cell-based, E. coli. As to conditions: without PMBN. From the text:
(§1) Chemically competent S2060 cells were co-transformed with accessory and complementary plasmids (Table S1).

Test [2] addresses FRB. As to conditions: read-out: KD for FRB without FKBP12; cited from earlier work.
In test [3] the target is full-length CRBN (MG-PACE circuit, SD35) (Homo sapiens, UniProt Q96SW2). Description: Two-hybrid luciferase transcriptional activation in PMBN-permeabilized E. coli by compound-induced ternary complex of RR69–human full-length CRBN with ω–degron, about 1 h at 37 °C, four-parameter fit. The following applies: n = 3. The class given is cell-based, E. coli S2060.
The target in test [4] is full-length CRBN (MG-PACE circuit, SD36) (Homo sapiens, UniProt Q96SW2). Described as above. Format: cell-based, E. coli S2060. As to conditions: n = 3.
Excerpt: (§2) To evolve ZFs that engage PT-179-bound CRBN, we constructed an MG-PACE circuit using the CRBN•IMiD•ZF molecular glue complex. […] We translationally fused CRBN to the DNA-binding protein RR69 and fused SD0 to the RNAP ω-subunit, then measured transcriptional activation by luminescence (Fig. 2A).
(§3) Figure 2. […] (A) Full-length CRBN MG-PACE circuit. (B) CRBNCTD MG-PACE circuit. […] Values and error bars in (C), (E), and (H) represent the mean and standard deviation of three replicates, each normalized to a control treatment with DMSO only. Dashed vertical lines in (D), (F), and (G) represent neutral drift passages.
as §1

The target of test [5] is full-length CRBN (MG-PACE circuit, SD31) (Homo sapiens, UniProt Q96SW2). Described as above. The class given is cell-based, E. coli S2060. As to conditions: n = 3.
Excerpt: as §2, §3, §1

Test [6] has as its target T1, mmCRBN (MG-PACE circuit, SD56) (Mus musculus, UniProt Q8C7D2).
T1 construct: gene Crbn; mouse cereblon in mmCRBN MG-PACE circuit, partner SD56 (evolved ZF degron), in E. coli
The test can be described thus: Two-hybrid luciferase transcriptional activation in PMBN-permeabilized E. coli by compound-induced ternary complex of mouse CRBN with evolved degron, about 1 h at 37 °C, four-parameter fit. The class given is cell-based, E. coli S2060. The following applies: n = 3. From the text:
(§4) Compared to human CRBN, mouse cereblon (mmCRBN) contains a V388I mutation that prevents IMiD-induced recruitment of ZF neosubstrates ([8]). The development of a potent and compact degron that is compatible with mmCRBN would facilitate studies that modulate target protein function in mouse systems. We hypothesized that MG-PACE could evolve degrons that overcome this difference in mmCRBN and respond to PT-179 in mouse cells. We constructed a mmCRBN MG-PACE circuit (Fig. 5A) and performed a total of 205 hours of PACE seeded with SD36-encoding phage (Fig. 5B).
(§5) Figure 5. MG-PACE evolves degrons that engage PT-179-bound mouse CRBN. (A) The mmCRBN MG-PACE circuit. Stringency is increased by expression of a competing ZF degron fused to maltose binding protein (MBP). (B) PACE in the mmCRBN MG-PACE circuit. (C) Mutations in evolved PT-179•mmCRBN-binding degrons. (D) PT-179-induced mmCRBN circuit activation (1 hr) by SD0 and evolved variants. […]
(§6) Chemically competent S2060 cells were co-transformed with accessory and complementary plasmids (Table S1). […] 96-well plates were then incubated in an Infinite M1000 Pro microplate reader (Tecan) at 37 °C with continuous shaking for ~1 hour prior to reading A600 nm and luminescence values. Raw luminescence values were then divided by the corresponding A600 nm values to normalize to cell density.

The target in test [7] is T2, mmCRBN (MG-PACE circuit, SD55) (Mus musculus, UniProt Q8C7D2).
T2 construct: gene Crbn; mouse cereblon in mmCRBN MG-PACE circuit, partner SD55 (evolved ZF degron), in E. coli
Described as above. Format: cell-based, E. coli S2060. The following applies: n = 3.
Excerpt: as §4, §5, §6

The target of test [8] is T3, DDB1•CRBN (Homo sapiens, UniProt Q96SW2).
T3 construct: made in house
The test can be described thus: Competitive fluorescence anisotropy (polarization) vs thalidomide-Cy5. Format: binding. The procedure: Competitive fluorescence polarization experiments were performed according to previously reported methods ([65]). All experiments were performed in 25 mM HEPES, […], 1 mM TCEP, pH 7.4. A pre-complexed sample was prepared by incubating DDB1-CRBN (400 nM) with thalidomide–Cy5 conjugate (fig. S2A) (80 nM) at RT for 30 minutes with gentle shaking (220 rpm). […] Polarization values were measured on an Infinite M1000 Pro microplate reader (Tecan) following 1 hour of incubation at RT with gentle shaking. A total of three independent measurements were acquired and averaged per biological sample to generate the values shown in figure S2C. All mP values were normalized between 0 and 100 using the formula NormalizedmP=[(x−minimum)/[…]]∗100 , where ‘‘x’’ is the mP value of the sample and ‘‘minimum’’ and ‘‘maximum’’ are the minimum and maximum mP values, respectively, across all samples. KD values were estimated from computed Ki-values as previously described ([65]).
(In general: In fluorescence polarisation assays a small probe gives low polarisation when free and higher when bound to something large.)

Test [9] relates to degron-tagged eGFP. Description: Degron-tagged eGFP degradation by flow cytometry in HEK293T cells. Format: cell-based, human.

Molecules are shown by their SMILES. “Also recorded” adds a separate entry of the source. Where only a bound is given, the exact number is not on record here.

This is an account of results in PMC11203266, “Continuous evolution of compact protein degradation tags regulated by selective molecular glues” (Science (New York, N.Y.), 2024).

As a reminder, the Kd is the concentration at which binding is half-saturated. As for `CO[C@H]1C[C@@H]2CC[C@@H](C)[C@@](O)(O2)C(=O)C(=O)N2CCCC[C@H]2C(=O)O[C@H]([C@H](C)C[C@@H]2CC[C@@H](O)[C@H](OC)C2)CC(=O)[C@H](C)/C=C(\C)[C@@H](O)[C@@H](OC)C(=O)[C@H](C)C[C@H](C)/C=C/C=C/C=C/1C` [rapamycin], the “rapamycin concentrations at which luciferase expression was detected” value in test [1] is > 1 µM. Also, in test [2], the Kd is 26 µM.
In general, EC50 refers to the midpoint of the concentration-response curve. High values mean lower potency in that assay, low ones higher potency in that assay. For `O=C1CCC(N2C(=O)c3ccc(N4CCOCC4)cc3C2=O)C(=O)N1` (centres unmarked) [PT-179, PT-179 (thalidomide derivative with a morpholine at the phthalimide 5-position, without the 4-amino group)], the EC50 in [3] was 0.557 µM; in test [4] it was 0.217 µM; in test [5], 3.25 µM; in test [6], 0.225 µM; in [7], 1.11 µM.
Consider `O=C1CCC(N2C(=O)c3cc(F)c(N4CCOCC4)cc3C2=O)C(=O)N1` (centres unmarked) [PK-1016], for which the “lower affinity for CRBN than PT-179” value in [8] was found to be 2 fold. Further, the Kd in test [8] (competition with thalidomide–Cy5, KD estimated from Ki) is 1.01 µM. Also, the “PK-1016-induced degradation of SD40-eGFP (in words)” value in test [9] (HEK293T cells) is “poor activity; also recorded: poor degrader”.
In the case of `N#Cc1ccc(N2CCN(Cc3ccc(COc4cccc5c4CN([C@H]4CCC(=O)NC4=O)C5=O)cc3)CC2)c(F)c1` [mezigdomide, reference compound], the “degradation activity on SD40-tagged eGFP (in words)” value in test [9] (fig. S11E) was “highly potent degradation activity”.
